Series [1] relates to M. tuberculosis inside the host macrophage. As to the kind of experiment: QIM: Quantification of Intracellular Mycobacteria (intracellular growth assay, phenotypic cell-based). Particulars: Mycobacterium tuberculosis; MIC, 80% bacterial growth inhibition; intracellular growth; read-out: QIM. The method in brief:
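Phenotypic high-content assay measuring M. tuberculosis multiplication inside host macrophages, run as dose response. MIC is the minimum compound concentration giving 80% bacterial growth inhibition.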

Series [2] relates to in vitro grown Mycobacteria (M. tuberculosis). As to the kind of experiment: QUM: Quantification of in vitro grown Mycobacteria (in vitro growth fluorescence assay). The series is classed as cell-based. Particulars: Mycobacterium tuberculosis; MIC, 80% bacterial growth inhibition; in vitro growth; read-out: QUM. The method in brief:
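Mycobacterium tuberculosis grown in vitro was quantified by fluorescence across compound dose responses. MIC is defined as the minimum concentration producing 80% growth inhibition.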

These results are taken from US8865734B2 (priority 2010, dated 2014).

In brackets after ≈: the same amount, converted by molar mass.

A word on the melting point: it is the temperature of the solid-liquid transition. `CCc1nc2ccc(Cl)cn2c1C(=O)NCc1ccc(N2CCCC2)cc1` [Compound 211, 6-Chloro-2-ethyl-N-(4-(pyrrolidin-1-yl)benzyl)imidazo[1,2-a]pyridine-3-carboxamide] yielded a melting point of 222 to 223 °C. The MIC in series [1] was less than 1 µM. For the same molecule, the MIC in series [2] was less than 1 µM.

As for `CCc1nc2ccc(Cl)cn2c1C(=O)NCc1ccc(N2CC(C)CC(C)C2)cc1` (stereo not drawn) [Compound 216, 6-Chloro-N-(4-(3,5-dimethylpiperidin-1-yl)benzyl)-2-ethylimidazo[1,2-a]pyridine-3-carboxamide], the melting point was in the range of 157.2 to 158 °C. In addition, the MIC in series [1] is less than 1 µM. Also, the MIC in series [2] was less than 1 µM.

In the case of `CCc1nc2cc(Cl)ccn2c1C(=O)NCc1ccc(N2CC(C)CC(C)C2)cc1` (stereo not drawn) [Compound 217, 7-Chloro-N-(4-(3,5-dimethylpiperidin-1-yl)benzyl)-2-ethylimidazo[1,2-a]pyridine-3-carboxamide], the melting point lay within 181.5 to 182.8 °C. Also, in series [1], the MIC was less than 1 µM. Besides, the MIC in series [2] was less than 1 µM.

`CCc1nc2cc(Cl)ccn2c1C(=O)NCc1ccc(N2CCC(O)CC2)cc1` [Compound 218, 7-Chloro-2-ethyl-N-(4-(4-hydroxypiperidin-1-yl)benzyl)imidazo[1,2-a]pyridine-3-carboxamide]: the melting point lay in the range of 179.1 to 180 °C. In series [1], the MIC is more than 20 µM. Moreover, in series [2], the MIC was less than 1 µM.

Turning to `CCc1nc2ccc(Cl)cn2c1C(=O)NCC1CCN(Cc2ccc(OC(F)(F)F)cc2)CC1` [Compound 226, 6-Chloro-2-ethyl-N-((1-(4-(trifluoromethoxy)benzyl)piperidin-4-yl)methyl)imidazo[1,2-a]pyridine-3-carboxamide], the melting point is 171 to 172 °C. Also, the MIC in series [1] was less than 1 µM. For the same molecule, the MIC in series [2] is less than 1 µM.

In turn, `CCc1nc2ccc(Cl)cn2c1C(=O)NCC1CCN(Cc2ccc(F)cc2)CC1` [Compound 227, 6-Chloro-2-ethyl-N-((1-(4-fluorobenzyl)piperidin-4-yl)methyl)imidazo[1,2-a]pyridine-3-carboxamide] displayed a melting point of 176 to 177 °C. Further, the MIC in series [1] was less than 1 µM. Further, the MIC in series [2] lay in the range of 1 to 20 µM (≈ 0.429 to 8.58 µg/mL).

`CCc1nc2cc(Cl)ccn2c1C(=O)NCC1CCN(Cc2ccc(OC(F)(F)F)cc2)CC1` [Compound 228, 7-Chloro-2-ethyl-N-((1-(4-(trifluoromethoxy)benzyl)piperidin-4-yl)methyl)imidazo[1,2-a]pyridine-3-carboxamide] displayed a melting point of 145 to 146 °C. Also, the MIC in series [1] was more than 20 µM. In addition, in series [2], the MIC is more than 20 µM.

As to `CCc1nc2ccc(Cl)cn2c1C(=O)NC1CCN(Cc2ccc(OC(F)(F)F)cc2)CC1` [Compound 229, 6-Chloro-2-ethyl-N-(1-(4-(trifluoromethoxy)benzyl)piperidin-4-yl)imidazo[1,2-a]pyridine-3-carboxamide], the melting point was in the range of 157 to 158 °C. Further, the MIC in series [1] was more than 20 µM. Moreover, in series [2], the MIC was more than 20 µM.

On to `CCc1nc2ccc(Cl)cn2c1COc1ccc(OC(F)(F)F)cc1` [Compound 239, 6-Chloro-2-ethyl-3-((4-(trifluoromethoxy)phenoxy)methyl)imidazo[1,2-a]pyridine], for which the melting point lay within 127 to 128 °C. For the same molecule, the MIC in series [1] is more than 20 µM. Besides, the MIC in series [2] was more than 20 µM.

In the case of `CCc1nc2ccc(Cl)cn2c1CNc1ccc(N2CCN(c3ccc(F)cc3)CC2)cc1` [Compound 241, N-((6-Chloro-2-ethylimidazo[1,2-a]pyridin-3-yl)methyl)-4-(4-(4-fluorophenyl)piperazin-1-yl)aniline], the melting point fell in the range of 191 to 192 °C. Further, in series [1], the MIC was more than 20 µM. In series [2], the MIC was more than 20 µM.

With `CCc1nc2ccc(Cl)cn2c1CNc1ccc(Oc2ccc(F)cc2)cc1` [Compound 242, N-((6-Chloro-2-ethylimidazo[1,2-a]pyridin-3-yl)methyl)-4-(4-fluorophenoxy)aniline], the melting point lay in the range of 148.6 to 148.8 °C. In addition, in series [1], the MIC was more than 20 µM. Further, in series [2], the MIC is more than 20 µM.

Regarding `CCc1nc2ccc(Cl)cn2c1-c1nc(Cc2ccc(OC(F)(F)F)cc2)no1` [Compound 243, 5-(6-Chloro-2-ethylimidazo[1,2-a]pyridin-3-yl)-3-(4-(trifluoromethoxy)benzyl)-1,2,4-oxadiazole], the melting point is 146.4 to 146.9 °C. In addition, the MIC in series [1] was more than 20 µM. The MIC in series [2] is more than 20 µM.

As for `CCc1nc2ccccn2c1C(=O)NCc1ccc(/N=C/c2ccc(OC(F)(F)F)cc2)cc1` [Compound 261], the melting point was found to be 194 °C. Besides, in series [1], the MIC was more than 20 µM. Besides, in series [2], the MIC was more than 20 µM.

On to `CCc1nc2cc(Cl)ccn2c1C(=O)NCc1ccc(NCc2ccc(OC(F)(F)F)cc2)cc1` [Compound 262], for which the melting point is 169.6 °C. Also, the MIC in series [1] was less than 1 µM. In series [2], the MIC was less than 1 µM.

Consider `CCc1nc2ccc(Cl)cn2c1C(=O)NCc1ccc(N2CCC3CCCCC3C2)cc1` (stereo not drawn) [Compound 267, 6-Chloro-2-ethyl-N-(4-(octahydroisoquinolin-2(1H)-yl)benzyl)imidazo[1,2-a]pyridine-3-carboxamide], for which the melting point came to 141.7 °C. Besides, the MIC in series [1] was less than 1 µM. For the same molecule, in series [2], the MIC is less than 1 µM.

As for `CCc1nc2cc(Cl)ccn2c1C(=O)NCc1ccc(N2C=CC(=O)CC2)cc1` [Compound 270, 7-Chloro-2-ethyl-N-(4-(4-oxo-3,4-dihydropyridin-1(2H)-yl)benzyl)imidazo[1,2-a]pyridine-3-carboxamide], the melting point lay in the range of 201.3 to 202.8 °C. Also, the MIC in series [1] was more than 20 µM. For the same molecule, the MIC in series [2] was more than 20 µM.

With `CCc1nc2cc(Cl)ccn2c1C(=O)NCc1ccc(N2CCCCC2C)cc1` (stereo not drawn) [Compound 273, 7-chloro-2-ethyl-N-(4-(2-methylpiperidin-1-yl)benzyl)imidazo[1,2-a]pyridine-3-carboxamide], the melting point is 117.9 °C. The MIC in series [1] was less than 1 µM. Moreover, in series [2], the MIC was less than 1 µM.

As for `CCc1nc2ccc(Cl)cn2c1C(=O)NCc1ccc(N2CCC(COC)CC2)cc1` [Compound 281, 6-Chloro-2-ethyl-N-(4-(4-(methoxymethyl)piperidin-1-yl)benzyl)imidazo[1,2-a]pyridine-3-carboxamide], the melting point was 162.1 °C. For the same molecule, the MIC in series [1] is less than 1 µM. Also, the MIC in series [2] was less than 1 µM.

In the case of `CCc1nc2cc(Cl)ccn2c1C(=O)NCc1ccc(N2CCC(COC)CC2)cc1` [Compound 282, 7-Chloro-2-ethyl-N-(4-(4-(methoxymethyl)piperidin-1-yl)benzyl)imidazo[1,2-a]pyridine-3-carboxamide], the melting point came to 172.5 °C. In series [1], the MIC is less than 1 µM. The MIC in series [2] is less than 1 µM.

As for `CCc1nc2ccc(Cl)cn2c1C(=O)NCc1ccc(N2CCC(c3ccc(F)cc3)CC2)cc1` [Compound 286, 6-Chloro-2-ethyl-N-(4-(4-(4-fluorophenyl)piperidin-1-yl)benzyl)imidazo[1,2-a]pyridine-3-carboxamide], the melting point was 164 °C. In addition, the MIC in series [1] was less than 1 µM. The MIC in series [2] is less than 1 µM.
